From US7018639B1, “Vaccine antigens of Moraxella” (Commonwealth Scientific and Industrial Research Organisation, priority 1999, dated 2006)

System: M. bovis protease
Type: biochemical, Moraxella bovis
Conditions: 37° C.

O=S(=O)(F)Cc1ccccc1 [PMSF, phenylmethylsulfonyl fluoride]
protease activity after inhibitor: zero
